pIC50: −log10 of the molar value. Structures can show the parent of a compound that is named as a salt.

In the assay the target is T1, non-endogenous version of the MCH receptor (MCH-IC3-SST2) (Homo sapiens, UniProt Q99705, A240I/A242V/I247R/L249K/M235V/P241R/Q244S/R234K/R245S/R248K/R250S/R253K/S243G/S246K/T236K/T251E/V239G).
T1 construct: creating a MCH-IC3-SST2 mutation (see); expressed in transfected cells; cultured with 0.5 mg/ml G418, so I infer a stably transfected line
Nature of the assay: FLIPR/FDSS6000 functional assay: intracellular Ca2+ changes evoked by MCH. The assay is classed as cell-based. Particulars: antagonist activity; 50 nM of MCH; transient changes in [Ca2+]i monitored by FLIPR or FDSS. The text has this:
Subsequently, a functional based assay was used to confirm the lead hits, referred to as FLIPR™ (the Fluorometric Imaging Plate Reader) and FDSS6000™ (Functional Drug Screening System). This assay utilized a non-endogenous version of the MCH receptor, which was created by swapping the third intracellular loop of the MCH receptor with that of the SST2 receptor (see Example 2(B)(2) of patent application Ser. No. 09/826,509).
The FLIPR and FDSS assays are able to detect intracellular Ca^2+ concentration in cells, which can be utilized to assess receptor activation and determine whether a candidate compound is an, for example, antagonist, inverse agonist or agonist to a Gq-coupled receptor. The concentration of free Ca^2+ in the cytosol of any cell is extremely low, whereas its concentration in the extracellular fluid and endoplasmic reticulum (ER) is very high. Thus, there is a large gradient tending to drive Ca^2+ into the cytosol across both the plasma membrane and ER. […]
To confirm the lead hits identified using the [^35S]GTPγS assay, Fluorometric Imaging Plate Reader system was used to allow for rapid, kinetic measurements of intracellular fluorescence in 96 well microplates (or 384 well microplates). Simultaneous measurements of fluorescence in all wells can be made by FLIPR or FDSS6000™, every second with high sensitivity and precision. […]

T1 sequence (Q99705 1-353 with the stated changes): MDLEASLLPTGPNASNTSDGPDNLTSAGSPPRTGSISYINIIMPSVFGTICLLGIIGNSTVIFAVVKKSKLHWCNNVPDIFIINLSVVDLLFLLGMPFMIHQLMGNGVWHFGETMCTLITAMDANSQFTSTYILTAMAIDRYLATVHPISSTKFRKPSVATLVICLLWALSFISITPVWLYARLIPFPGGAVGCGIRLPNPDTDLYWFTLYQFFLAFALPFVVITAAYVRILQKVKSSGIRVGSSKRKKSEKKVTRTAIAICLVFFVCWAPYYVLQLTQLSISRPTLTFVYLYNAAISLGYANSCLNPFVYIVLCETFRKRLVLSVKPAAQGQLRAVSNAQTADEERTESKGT

The term pIC50 denotes the negative decadic logarithm of the IC50, by convention in mol/L. The molecule `CN(C)c1nc(N[C@H]2CC[C@@H](CNCc3ccccc3OC(F)(F)F)CC2)nc2ccccc12` [Example 42, cis-N^4,N^4-Dimethyl-N^2-{4-[(2-trifluoromethoxy-benzylamino)-methyl]-cyclohexyl}-quinazoline-2,4-diamine dihydrochloride] showed a pIC50 of 7.72. Then `CN(C)c1nc(N[C@H]2CC[C@@H](CNCc3ccc(Br)cc3OC(F)(F)F)CC2)nc2ccccc12` [Example 41, cis-N^2-{4-[(4-Bromo-2-trifluoromethoxy-benzylamino)-methyl]-cyclohexyl}-N^4,N^4-dimethyl-quinazoline-2,4-diamine dihydrochloride], with 8.22.

These data come from patent publication US7544690B2, “MCH receptor antagonists” (Taisho Pharmaceutical Co., Ltd., priority 2001, dated 2009).
